Laboratory results: publication PMC6718149, “Structure of GTP cyclohydrolase I from Listeria monocytogenes, a potential anti-infective drug target” (Acta Crystallographica. Section F, Structural Biology …, 2019)

T1: human GTP cyclohydrolase I (Homo sapiens, UniProt P30793)
T1 construct: made in house
T1 sequence (P30793 43-250 limits assumed): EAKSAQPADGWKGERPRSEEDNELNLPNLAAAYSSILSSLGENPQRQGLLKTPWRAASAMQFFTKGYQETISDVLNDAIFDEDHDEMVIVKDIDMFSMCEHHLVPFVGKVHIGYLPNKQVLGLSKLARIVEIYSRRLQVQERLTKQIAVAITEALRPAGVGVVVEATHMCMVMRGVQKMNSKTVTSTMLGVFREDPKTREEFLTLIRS

B1: GTP cyclohydrolase I from Listeria monocytogenes (enzyme, L. monocytogenes)
chain: EQIDKQKIADAVKVILEAVGENPDREGLIDTPMRVARMYEEVFAGLKKDPSVHFDTIFEEQHEELVLVKDIRFSSMCEHHLVPFFGVAHVAYLPQNGRVAGLSKLARVVDDVSRRPQLQERITTTVAEIMMEKLKPLGVMVIMEAEHMCMTIRGVNKPGTKTITSAVRGAFKNDDKLRSEVLALIKHN
modifications: Cys78 and Cys150 oxidized to the disulfide level (in the crystal; zinc lost)
notes: GTP cyclohydrolase I (folE), L. monocytogenes ATCC BAA-679; the natural stretch begins at Glu (first cloned triplet GAG) and runs to the stop codon; the printed Cys78 and Cys150 fit numbering with this Glu as residue 2; D5-symmetric homodecamer; also called LmGTPCHI; His6-EK-LmGTP-CHI; source: E. coli XL1-Blue (plasmid pNCO-His6-EK-LmGTP-CHI), purified (nickel-NTA agarose, Superdex 200); not …

Key:
[1] = target: T1, human GTP cyclohydrolase I; assay: Photometric counterscreen against human GTP cyclohydrolase I (330 nm); assay type: biochemical; conditions: human GTP cyclohydrolase I (blue curve); 200 µM GTP, pH 7.5; calculated with DynaFit
Description: (§1) In order to explore the druggability of the protein, we screened a small library of about 9000 highly diverse compounds (Bracher et al., 1998[▸]). Assays were run in 384-well plates and were monitored photometrically at 330 nm. Hits were rescreened against GTP cyclohydrolase I from L. monocytogenes and human GTP cyclohydrolase I, and IC50 values were determined using the photometric assay. […] Although stronger inhibitors have been reported down to a K i of 5.4 nM (Tanaka et al., 2005[▸]), all of the inhibitors reported so far are substrate or product analogs.
(§2) Assay mixtures contained 50 mM Tris hydrochloride, pH 7.5, 100 mM KCl, 200 µM GTP, and protein. They were monitored photometrically at 330 nm.
(§3) S2. High throughput screen
(§4) A substance library of 9,000 test compounds (courtesy of BASF Crop protection division, Ludwigshafen, Germany) was tested against GTP cyclohydrolase I protein from L. monocytogenes in 384 well clear bottom plates (Corning, polystyrol, flat-bottom, non-treated surface). 32 wells of each plate were used as “signal”, i.e. as positive control with enzyme and substrate, but without test compound. 32 wells of each plate were used as “control”, i.e. as negative control with substrate but without enzyme or test compound. Each of the remaining 320 wells contained app. 50 µM test compound (depending on the molecular weight of a given test substance) in 3 µL DMSO. The compounds were pipetted with a Hamilton Starlet robot (Hamilton Germany GmbH, Planegg, Germany) with a 96-tip pipetting block. Enzyme (final concentration 8.7 µM) and substrate (final concentration 200 µM) were supplied in separate solutions that both contained 50 mM Tris hydrochloride, pH 7.5 and 100 mM KCl. 30 µL per well of both solutions were filled in to the assay plates with an 8-fold dispenser (Bio Tek Germany, Bad Friedrichshall, Germany) and the plates were then centrifuged for 1 min at 1,000 rpm and room temperature. The reaction was monitored with a SpectraMax M5 plate reader photometer (Molecular Devices GmbH, Biberach a. d. Riss, Germany) at 330 nm and room temperature for 30 min. […]

[2] = target: T2, GTP cyclohydrolase I from L. monocytogenes (Listeria monocytogenes serovar 1/2a, UniProt Q8Y5X1); assay: Photometric GTP cyclohydrolase I inhibition assay (330 nm), IC50 determination of screening hits; assay type: biochemical; conditions: GTP cyclohydrolase I from L. monocytogenes (red curve); 200 µM GTP, pH 7.5; calculated with DynaFit
T2 construct: made in house; host or cells: Escherichia coli XL1-Blue, plasmid pNCO-His6-EK-LmGTP-CHI
Description: as §1, §2, §3, §4

[3] = target: the molecule itself; assay: crystal structure; sitting-drop vapor diffusion, 1.33 M sodium citrate, 0.1 M HEPES pH 7.3; 2.4 Å; one decamer in the asymmetric unit

| Molecule | IC50 [1] [µM] | IC50 [2] [µM] | stoichiometry N [3] |
| --- | --- | --- | --- |
| C=CCNc1nc(N)c(C(=O)c2ccc3c(c2)OCO3)s1 [(a)] | > 500 | 13 ± 1 |  |
| O=C1CS/C(=N/N=C/c2ccc(-c3ccc(Cl)cc3)o2)N1 [(b)] | 238 ± 40 | 27 ± 6 |  |
| Cc1ccc(OC(=S)Nc2ccc(NC(=S)Oc3ccc(C)cc3)cc2)cc1 [(c)] | 327 ± 66 | 36 ± 3 |  |
| B1 |  |  | 10 |
